The target in this experiment is T1, FPRL-1 (Homo sapiens, UniProt P25090).
T1 construct: expressed in transfected cells
T1 sequence (P25090 1-351): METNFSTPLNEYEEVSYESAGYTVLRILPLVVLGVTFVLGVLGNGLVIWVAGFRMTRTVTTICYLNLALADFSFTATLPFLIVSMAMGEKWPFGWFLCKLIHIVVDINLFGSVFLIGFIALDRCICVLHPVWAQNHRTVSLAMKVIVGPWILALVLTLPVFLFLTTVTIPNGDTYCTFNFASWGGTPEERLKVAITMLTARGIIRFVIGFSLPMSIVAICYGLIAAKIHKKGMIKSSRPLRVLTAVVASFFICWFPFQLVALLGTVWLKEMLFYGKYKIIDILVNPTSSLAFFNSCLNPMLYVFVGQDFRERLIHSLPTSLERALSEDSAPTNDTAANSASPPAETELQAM
Put plainly: Compound-induced calcium activity on FLIPR Tetra in CHO-Ga16 cells stably expressing FPRL1. To be noted: for EC50: compounds tested at 0.61 to 10,000 nM; for FPRL-1 Ga16-CHO (Rel. eff.): relative efficacy. It counts as cell-based. On the procedure:
CHO-Ga16 cells stably expressing FPRL1 were cultured in (F12, 10% FBS, 1% PSA, 400 μg/ml geneticin and 50 μg/ml hygromycin) and HEK-Gqi5 cells stable expressing FPR1 were cultured in (DMEM high glucose, 10% FBS, 1% PSA, 400 μg/ml geneticin and 50 μg/ml hygromycin). In general, the day before the experiment, 18,000 cells/well were placed in a 384-well clear bottom poly-d-lysine coated plate. The following day the screening compound-induced calcium activity was assayed on the FLIPR^Tetra. The drug plates were prepared in 384-well microplates using the EP3 and the MultiPROBE robotic liquid handling systems. Compounds were tested at concentrations ranging from 0.61 to 10,000 nM. Results are expressed as EC50 (nM) and efficacy values.

Structures are written as SMILES. “And” between values parts separate entries of the source, which are not always exact repeats. Identical values can stand only once.

Regarding `CSc1ccc(NC(=O)NC(Cc2ccccc2)C(=O)O)cc1` (stereo not shown) [Compound 23, 2-[({[4-(Methylthio)phenyl]amino}carbonyl)amino]-3-phenylpropanoic acid], the 50% effective concentration (EC50) amounted to 169 nM and the “FPRL-1 Ga16-CHO (Rel. eff.)” value is reported as “(0.76)”.

As to `Cc1cc(Br)cc(C)c1NC(=O)N[C@@H](Cc1ccccc1)C(=O)O` [Compound 4, (2S)-2-({[(4-Bromo-2,6-dimethylphenyl)amino]carbonyl}amino)-3-phenylpropanoic acid], the EC50 was 2400 nM and the “FPRL-1 Ga16-CHO (Rel. eff.)” value is reported as “(0.82)”.

As to `O=C(Nc1ccc(C(F)(F)F)cc1)NC(Cc1ccccc1)C(=O)O` (stereo not shown) [Compound 22, 3-Phenyl-2-({[4-(trifluoromethyl)phenyl]carbamoyl}amino)propanoic acid], the EC50 is 91 nM and the “FPRL-1 Ga16-CHO (Rel. eff.)” value is listed as “(1.05)”.

Turning to `CSCCC(NC(=O)Nc1ccc(Br)cc1)C(=O)O` (stereo not shown) [Compound 21, 2-({[(4-Bromophenyl)amino]carbonyl}amino)-4-(methylthio)butanoic acid], the EC50 was 93 nM and the “FPRL-1 Ga16-CHO (Rel. eff.)” value was “(0.94)”.

Consider `O=C(Nc1ncc2cc(Br)ccc2n1)NC(Cc1ccccc1)C(=O)O` (stereo not shown) [Compound 20, 2-({[(6-Bromoquinazolin-2-yl)amino]carbonyl}amino)-3-phenylpropanoic acid], for which the “FPRL-1 Ga16-CHO (Rel. eff.)” value is “(0.25)”.

Regarding `CC[C@H](C)[C@H](NC(=O)Nc1ccc(Br)cc1F)C(=O)O` [Compound 7, (2S,3S)-2-({[(4-Bromo-2-fluorophenyl)amino]carbonyl}amino)-3-methylpentanoic acid], the EC50 came to 8 nM and the “FPRL-1 Ga16-CHO (Rel. eff.)” value is recorded as “(0.89)”.

Turning to `CC(C)C[C@H](NC(=O)Nc1ccc(Br)cc1F)C(N)=O` [Compound 27, (2S)-2-({[(4-Bromo-2-fluorophenyl)amino]carbonyl}amino)-4-methylpentanamide], the EC50 is 120 nM and the “FPRL-1 Ga16-CHO (Rel. eff.)” value is reported as “(1.13)”.

On to `NC(=O)[C@H](Cc1ccccc1)NC(=O)Nc1ccc(Br)cc1` [Compound 26, (2S)-2-({[(4-Bromophenyl)amino]carbonyl}amino)-3-phenylpropanamide], for which the EC50 was 47 nM and 29 nM.

On to `CCC(CC)(NC(=O)Nc1ccc(Br)cc1)C(=O)O` [Compound 25, 2-({[(4-Bromophenyl)amino]carbonyl}amino)-2-ethylbutanoic acid], for which the half-maximal effective concentration (EC50) worked out at 24 nM and the “FPRL-1 Ga16-CHO (Rel. eff.)” value is “(1.03)”.

As for `O=C(Nc1ccc(Br)cc1)NC(Cc1ccccn1)C(=O)O` (stereo not shown) [Compound 16, 2-({[(4-Bromophenyl)amino]carbonyl}amino)-3-pyridin-2-ylpropanoic acid], the EC50 was 488 nM and the “FPRL-1 Ga16-CHO (Rel. eff.)” value is recorded as “(1.0)”.

Regarding `Cc1cc(Br)ccc1NC(=O)N[C@@H](Cc1ccccc1)C(=O)O` [Compound 2, (2S)-2-({[(4-Bromo-2-methylphenyl)amino]carbonyl}amino)-3-phenylpropanoic acid], the EC50 was 1550 nM and the “FPRL-1 Ga16-CHO (Rel. eff.)” value is on record as “(1.0)”.

With `CC[C@H](C)[C@H](NC(=O)Nc1ccc(Br)cc1F)C(N)=O` [Compound 29, (2S,3S)-2-({[(4-Bromo-2-fluorophenyl)amino]carbonyl}amino)-3-methylpentanamide], the EC50 worked out at 241 nM and the “FPRL-1 Ga16-CHO (Rel. eff.)” value is “(0.78)”.

In the case of `O=C(Nc1c(F)cc(Br)cc1F)N[C@@H](Cc1ccccc1)C(=O)O` [Compound 3, (2S)-2-({[(4-Bromo-2,6-difluorophenyl)amino]carbonyl}amino)-3-phenylpropanoic acid], the EC50 is 563 nM and the “FPRL-1 Ga16-CHO (Rel. eff.)” value is “(1.0)”.

As for `O=C(Nc1ccc(Br)cc1F)N[C@H](C(=O)O)c1ccccc1` [Compound 8, (2S)-({[(4-Bromo-2-fluorophenyl)amino]carbonyl}amino)(phenyl)acetic acid], the EC50 turned out to be 88 nM and the “FPRL-1 Ga16-CHO (Rel. eff.)” value was “(1.02)”.

Take `CCC[C@H](NC(=O)Nc1ccc(Br)cc1F)C(N)=O` [Compound 30, (2S)-2-({[(4-Bromo-2-fluorophenyl)amino]carbonyl}amino)pentanamide]: the EC50 came out at 56 nM and the “FPRL-1 Ga16-CHO (Rel. eff.)” value is reported as “(1.07)”.

As for `CC(C)CC(C)(NC(=O)Nc1ccc(Br)cc1)C(=O)O` (stereo not shown) [Compound 24, 2-({[(4-Bromophenyl)amino]carbonyl}amino)-2,4-dimethylpentanoic acid], the EC50 is 16 nM and the “FPRL-1 Ga16-CHO (Rel. eff.)” value is listed as “(0.95)”.

As to `O=C(Nc1ccc(Cl)cc1Cl)N[C@@H](Cc1ccccc1)C(=O)O` [Compound 5, (2S)-2-({[(2,4-Dichlorophenyl)amino]carbonyl}amino)-3-phenylpropanoic acid], the EC50 stood at 1150 nM and the “FPRL-1 Ga16-CHO (Rel. eff.)” value was “(1.0)”.

Turning to `O=C(Nc1ccc(Br)cc1F)NC(Cc1c[nH]c2ccccc12)C(=O)O` (stereo not shown) [Compound 19, 2-({[(4-Bromo-2-fluorophenyl)amino]carbonyl}amino)-3-(1H-indol-3-yl)propanoic acid], the half-maximal effective concentration (EC50) turned out to be 120 nM and the “FPRL-1 Ga16-CHO (Rel. eff.)” value is listed as “(1.04)”.

As for `CCC[C@H](NC(=O)Nc1ccc(Br)cc1)C(N)=O` [Compound 31, (2S)-2-{[(4-Bromophenyl)carbamoyl]amino} pentanamide], the EC50 came out at 109 nM and the “FPRL-1 Ga16-CHO (Rel. eff.)” value is on record as “(0.97)”.

Turning to `O=C(Nc1ccc(Br)cc1F)NC(Cc1ccccn1)C(=O)O` (stereo not shown) [Compound 17, 2-({[(4-Bromo-2-fluorophenyl)amino]carbonyl}amino)-3-pyridin-2-ylpropanoic acid], the EC50 is 713 nM and the “FPRL-1 Ga16-CHO (Rel. eff.)” value is reported as “(1.0)”.

For the compound `CSCC[C@H](NC(=O)Nc1ccc(Br)cc1)C(=O)O` [Compound 14, (2S)-2-({[(4-Bromophenyl)amino]carbonyl}amino)-4-(methylthio)butanoic acid], the EC50 was found to be 75 nM and the “FPRL-1 Ga16-CHO (Rel. eff.)” value is reported as “(1.00)”.

With `CC(C)C[C@H](NC(=O)Nc1ccc(SC(F)(F)F)cc1)C(=O)O` [Compound 11, (2S)-4-Methyl-2-{[({4-[(trifluoromethyl)thio]phenyl}amino)carbonyl]amino}pentanoic acid], the 50% effective concentration (EC50) came to 2380 nM and the “FPRL-1 Ga16-CHO (Rel. eff.)” value is “(0.64)”.

`CSc1ccc(NC(=O)N[C@@H](Cc2ccccc2)C(=O)O)cc1` [Compound 15, (2S)-2-[({[4-(Methylthio)phenyl]amino}carbonyl)amino]-3-phenylpropanoic acid]: the EC50 was 77 nM and the “FPRL-1 Ga16-CHO (Rel. eff.)” value is “(0.87)”.

Consider `CC(C)C[C@H](NC(=O)Nc1ccc(Br)cc1)C(N)=O` [Compound 28, (2S)-2-({[(4-Bromophenyl)amino]carbonyl}amino)-4-methylpentanamide], for which the EC50 amounted to 48 nM and the “FPRL-1 Ga16-CHO (Rel. eff.)” value was “(0.91)”.

Take `O=C(Nc1ccc(Br)c2ccccc12)N[C@@H](Cc1ccccc1)C(=O)O` [Compound 10, (2S)-2-({[(4-Bromo-1-naphthyl)amino]carbonyl}amino)-3-phenylpropanoic acid]: the half-maximal effective concentration (EC50) came out at 5100 nM and the “FPRL-1 Ga16-CHO (Rel. eff.)” value was “(0.53)”.

`O=C(Nc1ccc(Br)cc1F)N[C@@H](Cc1ccccc1)C(=O)O` [Compound 1, (2S)-2-({[(4-Bromo-2-fluorophenyl)amino]carbonyl}amino)-3-phenylpropanoic acid]: the EC50 came to 51 nM and the “FPRL-1 Ga16-CHO (Rel. eff.)” value was “(0.88)”.

Turning to `CC(C)C[C@H](NC(=O)Nc1ccc(C(F)(F)F)cc1)C(=O)O` [Compound 12, (2S)-4-Methyl-2-[({[4-(trifluoromethyl)phenyl]amino}carbonyl)amino]pentanoic acid], the EC50 is 29 nM and the “FPRL-1 Ga16-CHO (Rel. eff.)” value is recorded as “(0.94)”.

These data come from US8816076B2, “Aryl urea derivatives as N-formyl peptide receptor like-1 (FPRL-1) receptor modulators” (Allergan, Inc., priority 2011, dated 2014).
